Legend:
p110α (Q859D) = p110α (Q859D) (Homo sapiens, UniProt P42336, Q859D); experiment: PI3K lipid kinase inhibition assay, p110α Q859D mutant; format: biochemical; conditions: for Selectivity ratio α/β Gln↔Asp: IC50 ratio p110α-(Q859D) / p110β-(D862Q)
p110β (D862Q) = p110β (D862Q) (Homo sapiens, UniProt P42338, D862Q); experiment: PI3K lipid kinase inhibition assay, p110β D862Q mutant; format: biochemical
p110β (E858H) = p110β (E858H) (Homo sapiens, UniProt P42338, E858H); experiment: PI3K lipid kinase inhibition assay, p110β E858H mutant; format: biochemical
Sequence of p110β (E858H) (P42338 whole entry E858H, species assumed): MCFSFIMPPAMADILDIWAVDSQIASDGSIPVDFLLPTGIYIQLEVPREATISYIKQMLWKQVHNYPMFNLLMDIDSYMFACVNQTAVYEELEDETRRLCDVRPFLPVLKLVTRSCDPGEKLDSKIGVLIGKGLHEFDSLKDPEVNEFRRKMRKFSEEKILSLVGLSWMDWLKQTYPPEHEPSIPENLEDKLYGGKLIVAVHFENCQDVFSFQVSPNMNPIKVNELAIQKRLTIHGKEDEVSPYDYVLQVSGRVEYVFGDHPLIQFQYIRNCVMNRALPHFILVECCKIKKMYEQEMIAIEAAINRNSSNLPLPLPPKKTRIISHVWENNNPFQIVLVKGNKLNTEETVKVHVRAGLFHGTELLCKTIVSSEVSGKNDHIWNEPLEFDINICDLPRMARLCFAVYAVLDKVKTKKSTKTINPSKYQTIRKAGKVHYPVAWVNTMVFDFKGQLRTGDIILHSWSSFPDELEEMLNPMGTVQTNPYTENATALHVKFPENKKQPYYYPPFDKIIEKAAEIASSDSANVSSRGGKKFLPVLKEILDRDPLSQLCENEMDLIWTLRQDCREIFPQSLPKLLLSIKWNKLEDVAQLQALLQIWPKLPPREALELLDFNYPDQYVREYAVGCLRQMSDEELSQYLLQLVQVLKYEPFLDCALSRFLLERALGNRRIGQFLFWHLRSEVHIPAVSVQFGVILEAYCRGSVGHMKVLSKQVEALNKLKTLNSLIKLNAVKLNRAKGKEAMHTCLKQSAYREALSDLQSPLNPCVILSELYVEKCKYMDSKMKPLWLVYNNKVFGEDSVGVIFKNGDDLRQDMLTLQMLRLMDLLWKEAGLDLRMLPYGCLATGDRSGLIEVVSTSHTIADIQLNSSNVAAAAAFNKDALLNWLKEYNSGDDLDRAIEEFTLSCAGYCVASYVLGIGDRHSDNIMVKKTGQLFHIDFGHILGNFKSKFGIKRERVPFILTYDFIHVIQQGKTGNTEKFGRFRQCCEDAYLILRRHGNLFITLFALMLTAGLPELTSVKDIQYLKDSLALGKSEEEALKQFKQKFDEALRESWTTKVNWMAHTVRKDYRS
Sequence of p110β (E858H) (P27986 whole entry partner, species assumed): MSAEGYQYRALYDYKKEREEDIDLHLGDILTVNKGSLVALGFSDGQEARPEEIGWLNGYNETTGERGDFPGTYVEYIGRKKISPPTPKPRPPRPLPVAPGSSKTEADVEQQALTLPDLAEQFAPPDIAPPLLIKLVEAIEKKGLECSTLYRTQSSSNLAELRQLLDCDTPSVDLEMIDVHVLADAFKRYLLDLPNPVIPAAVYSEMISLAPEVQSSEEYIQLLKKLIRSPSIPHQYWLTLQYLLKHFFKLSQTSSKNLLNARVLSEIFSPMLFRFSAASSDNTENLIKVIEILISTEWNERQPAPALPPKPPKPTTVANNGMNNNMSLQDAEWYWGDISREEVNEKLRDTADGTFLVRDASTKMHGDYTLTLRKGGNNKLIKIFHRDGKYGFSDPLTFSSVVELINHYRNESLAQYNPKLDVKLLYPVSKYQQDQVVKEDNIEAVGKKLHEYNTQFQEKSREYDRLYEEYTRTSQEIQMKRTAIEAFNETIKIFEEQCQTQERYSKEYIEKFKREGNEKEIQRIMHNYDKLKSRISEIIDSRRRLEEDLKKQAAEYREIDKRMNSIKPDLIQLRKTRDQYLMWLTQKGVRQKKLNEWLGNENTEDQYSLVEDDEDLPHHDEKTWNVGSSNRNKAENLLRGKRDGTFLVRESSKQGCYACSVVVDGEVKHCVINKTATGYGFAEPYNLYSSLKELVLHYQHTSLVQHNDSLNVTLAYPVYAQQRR

p110α WT = p110α WT (Homo sapiens, UniProt P42336); experiment: PI3K lipid kinase inhibition assay, wild-type p110α; format: biochemical; conditions: IC50 ratio p110α WT / p110β WT
Sequence of p110α WT (P42336 whole entry): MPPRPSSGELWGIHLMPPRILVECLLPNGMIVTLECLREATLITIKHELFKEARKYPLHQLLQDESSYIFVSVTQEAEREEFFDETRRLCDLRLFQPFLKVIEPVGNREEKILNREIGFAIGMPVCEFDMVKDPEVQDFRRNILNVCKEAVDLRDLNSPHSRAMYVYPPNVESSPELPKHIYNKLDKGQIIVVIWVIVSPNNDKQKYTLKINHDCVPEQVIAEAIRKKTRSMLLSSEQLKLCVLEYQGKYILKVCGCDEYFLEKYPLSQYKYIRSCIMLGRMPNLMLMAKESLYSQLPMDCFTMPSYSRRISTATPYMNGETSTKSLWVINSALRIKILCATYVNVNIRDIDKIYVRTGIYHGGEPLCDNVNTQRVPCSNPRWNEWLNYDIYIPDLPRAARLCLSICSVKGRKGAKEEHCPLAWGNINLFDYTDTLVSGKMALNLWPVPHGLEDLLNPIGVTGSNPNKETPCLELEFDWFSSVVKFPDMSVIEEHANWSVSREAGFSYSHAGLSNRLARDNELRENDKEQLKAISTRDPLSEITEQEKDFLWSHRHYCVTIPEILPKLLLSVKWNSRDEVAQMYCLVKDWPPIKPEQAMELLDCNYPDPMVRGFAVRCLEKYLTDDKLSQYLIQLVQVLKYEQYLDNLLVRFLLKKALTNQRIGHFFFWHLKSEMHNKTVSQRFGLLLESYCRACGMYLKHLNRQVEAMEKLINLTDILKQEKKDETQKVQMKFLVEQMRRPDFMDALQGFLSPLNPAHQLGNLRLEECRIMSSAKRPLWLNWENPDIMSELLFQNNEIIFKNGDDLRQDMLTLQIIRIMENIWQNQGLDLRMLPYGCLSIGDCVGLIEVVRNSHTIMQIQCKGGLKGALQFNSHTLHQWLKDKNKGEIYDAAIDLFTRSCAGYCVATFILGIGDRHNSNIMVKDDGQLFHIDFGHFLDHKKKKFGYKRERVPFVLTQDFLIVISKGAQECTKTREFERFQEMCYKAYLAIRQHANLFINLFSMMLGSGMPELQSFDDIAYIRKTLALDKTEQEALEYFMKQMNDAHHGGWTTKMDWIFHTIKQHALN
Sequence of p110α WT (P27986 whole entry partner): as the sequence (P27986 whole entry partner, species assumed) above

p110α (H855E) = p110α (H855E) (Homo sapiens, UniProt P42336, H855E); experiment: PI3K lipid kinase inhibition assay, p110α H855E mutant; format: biochemical; conditions: for Selectivity ratio α/β His↔Glu: IC50 ratio p110α-(H855E) / p110β-(E858H); for loss of potency at H857E-p110α relative to wild type: mutant printed as H857E
Sequence of p110α (H855E) (P42336 whole entry H855E, species assumed): as the sequence (P42336 whole entry) above, with H855E counted along it
Sequence of p110α (H855E) (P27986 whole entry partner, species assumed): as the sequence (P27986 whole entry partner, species assumed) above

p110β WT = p110β WT (Homo sapiens, UniProt P42338); experiment: PI3K lipid kinase inhibition assay, wild-type p110β; format: biochemical; conditions: for selectivity for p110β relative to p110α (wild type): wild type enzymes
Sequence of p110β WT (P42338 whole entry): as the sequence (P42338 whole entry E858H, species assumed) above, with H858E counted along it
Sequence of p110β WT (P27986 whole entry partner): as the sequence (P27986 whole entry partner, species assumed) above

p110β = conditions: read-out: IC50 against p110β; 10μM ATP; ref Knight et al. 2006; cited from earlier work

Sequence of p110β (D862Q) (P42338 whole entry D862Q, species assumed): as the sequence (P42338 whole entry E858H, species assumed) above, with H858E, D862Q counted along it
Sequence of p110β (D862Q) (P27986 whole entry partner, species assumed): as the sequence (P27986 whole entry partner, species assumed) above
Sequence of p110α (Q859D) (P42336 whole entry Q859D, species assumed): as the sequence (P42336 whole entry) above, with Q859D counted along it
Sequence of p110α (Q859D) (P27986 whole entry partner, species assumed): as the sequence (P27986 whole entry partner, species assumed) above

Row | loss of potency at Q859D-p110α relative to wild type (p110α (Q859D)) | Selectivity ratio α/β Gln↔Asp (p110α (Q859D)) | increase in potency at p110β-D862Q relative to wild type (p110β (D862Q)) | increase in potency at p110β-E858H relative to wild type (p110β (E858H)) | Selectivity ratio α/β (wt) (p110α WT) | Selectivity ratio α/β His↔Glu (p110α (H855E)) | loss of potency at H857E-p110α relative to wild type (p110α (H855E)) | effect of p110β D862Q mutation on inhibition (in words) (p110β (D862Q); compared with wild type p110β) | effect of p110β E858H mutation on inhibition (in words) (p110β (E858H); compared with wild type p110β) | Compound | selectivity for p110β relative to p110α (wild type) (p110β WT) | IC50 (p110β) | difference between literature IC50 and IC50 of this study at p110β (p110β WT; 0.12μM (Knight et al. 2006) v. 7nM) | reduction in potency at p110β-D862Q relative to wild type (p110β (D862Q)) | reduction in potency at p110β-E858H relative to wild type (p110β (E858H))
1 | 5-6 fold | 4.59 | approximately 2 fold | approximately 2 fold | 0.34 | 3.56 | 5-6 fold | – | – | O=c1cc(N2CCOCC2)oc2c(OCc3cccnc3)cccc12 [TGX132] | – | – | – | – | –
2 | 3 fold | 12.65 | – | – | 4.30 | 17.3 | 3 fold | indistinguishable from the wild type | indistinguishable from the wild type | O=c1cc(N2CCOCC2)oc2c(OCc3ccccc3)cccc12 [TGX102] | approximately 4 fold | – | – | – | –

Row | Compound | loss of potency at Q859D-p110α relative to wild type (p110α (Q859D)) | Selectivity ratio α/β Gln↔Asp (p110α (Q859D)) | increase in potency at p110β-D862Q relative to wild type (p110β (D862Q)) | increase in potency at p110β-E858H relative to wild type (p110β (E858H)) | Selectivity ratio α/β (wt) (p110α WT) | Selectivity ratio α/β His↔Glu (p110α (H855E)) | loss of potency at H857E-p110α relative to wild type (p110α (H855E)) | effect of p110β D862Q mutation on inhibition (in words) (p110β (D862Q); compared with wild type p110β) | effect of p110β E858H mutation on inhibition (in words) (p110β (E858H); compared with wild type p110β) | selectivity for p110β relative to p110α (wild type) (p110β WT) | IC50 (p110β) | difference between literature IC50 and IC50 of this study at p110β (p110β WT; 0.12μM (Knight et al. 2006) v. 7nM) | reduction in potency at p110β-D862Q relative to wild type (p110β (D862Q)) | reduction in potency at p110β-E858H relative to wild type (p110β (E858H))
3 | TGX286 | – | 126.2 | – | – | 142.0 | 106.4 | – | – | – | over 140 fold | 120 nM | 17 fold | approximately 2 fold | approximately 2 fold
